Data on four compounds can be found in US5935987A, “Transdermal delivery of 3,4-diarylchromans” (priority 1996, dated 1999).

For series [1] the following is noted: racemate; cited from earlier work.
The conditions of series [2]: background statement, cited from earlier work.
For series [3] the following is noted: background statement; cited from earlier work.
Series [4] is described as follows: Concentration of levormeloxifene fumarate in saturated donor solutions (HPLC). The series is classed as physicochemical. Particulars: stirred 24 hours, room temperature; for solubility thermodynamic at 24 h: read-out: Conc. unmarked (donor phase saturated). How it is done:
The donor solutions were made of selected vehicles which were saturated with levormeloxifene fumarate, cf. Table 1. To prepare the donor solutions, levormeloxifene fumarate was added to the vehicles, and after stirring at room temperature for 24 hours, the donor solution was saturated with levormeloxifene fumarate and filtered through a Millipore filter 0.22 μm. Thereafter ^14 C-levormeloxifene was added to 1.00 ml of the donor solution to give a final concentration of ^14 C-levormeloxifene at 3 mg/ml (1,3 mCi/mi). Thereafter the donor solution was applied on the epidermal side of the skin, and the experiment was performed with occlusion. The concentrations of levormeloxifene fumarate in the donor solutions were determined previously by a HPLC method.

Series [5] is classed as in vitro ADME, human. Here is the method: The effect of selected formulations on levormeloxifene fumarate permeation through human skin in vitro is illustrated in the following way:
Franz glass diffusion cells were used (Franz, T. J.: Curr. Probl. Dermatol., 1978: 7; 58-68).
Experiments were performed on abdominal or breast skin obtained after surgery and kept at -20° C. for not more than ten months. After initial thawing the skin was squeezed between a metal and a glass plate, and after refreezing the skin was dermatomed to a thickness of 0.5 mm.
The human skin membrane was enclosed in the glass chambers with ground faces (diffusing area 0.64 cm^2). A clamp was used to keep the chambers together. […]
After the skin was allowed to equilibrate at 32° C. for one hour, the capacitance was measured with a Lutron DM 6023 Capacitance meter. […]
The donor solutions were made of selected vehicles which were saturated with levormeloxifene fumarate, cf. […] The concentrations of levormeloxifene fumarate in the donor solutions were determined previously by a HPLC method. […]
At appropriate intervals, samples were taken from the receptor phase and replaced by fresh receptor solution in order to keep sink-conditions. The amount of levormeloxifene fumarate in the receptor solution was determined using liquid scintillatory counting. […]
The mean value and the standard deviation were calculated of the flux J of the replicates. […]

Structures are written as SMILES. Values joined by “and” are separate entries in the source; they are usually repeats but may differ in a detail not shown here. Equal entries are not always repeated. Structures can show the parent of a compound that is named as a salt. Where two headings read alike, the source gives them in different places.

Consider `COc1ccc2c(c1)OC(C)(C)[C@@H](c1ccccc1)[C@@H]2c1ccc(OCCN2CCCC2)cc1` (relative stereo) [Centchroman], for which the cholesterol lowering entry in series [1] is recorded as “potent cholesterol lowering pharmaceutical agent expressed by a significant decrease of the serum concentrations”.

On to `COc1ccc2c(c1)OC(C)(C)[C@@H](c1ccccc1)[C@@H]2c1ccc(OCCN2CCCC2)cc1` [hydrochloride salt], for which, in series [2], the “behaviour in aqueous suspension” value was “forms a solid gel in aqueous suspension” and the solubility in water result was “quite heavy soluble in water”. Besides, in series [3], the hygroscopicity result was “hygroscopic”.

With `COc1ccc2c(c1)OC(C)(C)[C@@H](c1ccccc1)[C@@H]2c1ccc(OCCN2CCCC2)cc1` [levormeloxifene fumarate, (-)-3R,4R-trans-7-methoxy-2,2-dimethyl-3-phenyl-4-{4-[2-(pyrrolidin-1-yl)ethoxy]phenyl}chromane, hydrogen fumarate], the solubility thermodynamic at 24 h in series [4] (acetic acid 0.05m (b4), pH 4, vehicle B4 (acetic acid 0.05M, pH 4)) is 325 µg/mL; in series [4] (b4 + 2% 2-pyrrolidon, vehicle B4 + 2% 2-pyrrolidon), 420 µg/mL; in series [4] (b4 + 20% ethanol, organic solvent or mixture, vehicle B4 + 20% ethanol), 1400 µg/mL; in series [4] (b4 + 30% ethanol, organic solvent or mixture, vehicle B4 + 30% ethanol) it was 3100 µg/mL; in series [4] (pg + 10% oleic acid, organic solvent or mixture, vehicle PG + 10% oleic acid), 116000 µg/mL. In series [4] (vehicle B4 (acetic acid 0.05M, pH 4), 1440 min), the “Conc. unmarked (donor phase saturated)” value is 320 µg/mL and 325 µg/mL. Further, the Dosage per day in series [5] is on record as 0.56 mg. For the same compound, in series [5] (pH 4), the “Flux ± S.D.” value worked out at 0.495 ± 0.125 mg × cm^-2 × h^-1.

For `COc1ccc2c(c1)OC(C)(C)[C@@H](c1ccccc1)[C@@H]2c1ccc(OCCN2CCCC2)cc1` [levormeloxifene, (-)-3R,4R-trans-7-methoxy-2,2-dimethyl-3-phenyl-4-{4-[2-(pyrrolidin-1-yl)ethoxy]phenyl}chromane], the solubility in water result in series [2] (listed as free base) is “very poor solubility in water”.
